This note sets out measurements from patent US7048943B2, “Carotenoid-loaded liposomes” (Yissum Research Development Company of the Hebrew …, priority 2001, dated 2006).

Series [1] in a line: Partition of lycopene in tri-phase system (soya oil / water / egg PC SUV). In kind it is physicochemical. The settings on record: for Kp Lip/Oil: partition coefficient liposome/oil, liposomes 10% by weight; for Liposome/oil: ratio of lycopene in liposomal phase to oil phase; for Insoluble lycopene / lycopene concentration, Liposomal phase / lycopene concentration, Oil phase: soya oil / water / egg PC SUV, highest lycopene level; for lycopene concentration, Liposomal phase / lycopene concentration, Oil phase: mixed 2 hours at room temperature. The protocol:
The partition coefficient of lycopene in tri-phase systems was also evaluated. Tri-phase systems may serve for the determination of availability of the lycopene into biological membranes. The system used herein was composed from […]: soya oil in which the lycopene was present and water in which liposomes (10% by weight) in the form of small unilamellar vesicles (SUV) composed of pure egg phosphatidyl choline are present as the third phase.
The small unilamellar liposomes (SUV) composed of pure lipid (Ludwigshafen, Germany) egg phosphatidylcholine (egg PC) of an 80 nm were prepared and characterized as described by Haran et al. [Haran G. et al. Biochim. Biophys. Acta 1151:201–215 (1993)]. SUV egg PC size was ˜80 nm. The partition coefficient in the three phase system was performed at three different levels of lycopene—low, medium and high amounts, using crystalline lycopene (originated from fungi), 92% powder (LycoRed), 75% powder lycopene (LycoRed) and oleoresin (containing 6.06% by weight of lycopene). In case of the highest level, lycopene from tomato concentrate (containing 0.073% lycopene) was also evaluated.
Preparation of the three phase systems included the following steps; first, lycopene was dispersed in soya oil (4 ml) by ultrasonic irradiation in an ultrasonic bath (35 kHz, 285W). Then, the precipitate was removed, aliquots of the oil were diluted in isopropanol with ratio ranging from 1:10 to 1:100 and the concentration of lycopene in oil phase was determined.
Then, to soya oil saturated with lycopene (1.5 ml) egg PC SUV in water (1.5 ml) were added to form the three phase system. The system was then mixed for 2 hours at room temperature using a flask shaker (A5-6021, St. John Associate Inc.), after which aliquots of the oil phase and the liposomal aqueous phase were removed.
In particular, the aqueous phase was extracted using heptane into which more than 98% of the lycopene was extracted. This extract was evaporated to dryness and the residue was dissolved in 200 μl isopropanol and analyzed by HPLC to determine the amount of lycopene present in the liquid and oil phase.
The concentration of lycopene in the liposome phase was calculated based on the procedure of Samuni and Barenholz [Samuni A. M. and Barenholz Y, Biol. Med. 22:1165–1174 (1996); Barenholz Y. et al. M. Biophys. J. 59:110–124 (1991)]. The following Table 4 summarizes the results obtained.

Series [2] deals with CD-1 Mice. The series can be described thus: Oxazolone induced ear edema. In kind it is in vivo. The settings on record: topical on left ear 1 hour after 2% oxazolone challenge, ear punch weight after 24 hours, versus vehicle group. The protocol:
CD-1 Mice were induced with 3% oxazolone (Sigma) (30 mg/ml) made up in corn oil: acetone on a shaved abdomen. Five days later the mice were challenged with a 2% oxazolone (20 (mg/ml) in acetone on the left ear, right ear was untreated. One hour after challenging, the formulations examined (E1–E8) in a 70% EtOH/30% propylene glycol vehicle were applied onto the left ear. After 24 hours the mice were sacrificed and 7 mm ear punches were taken. The ear punches were placed on a scale and the difference between the treated and untreated ears was measured.
The percent inhibition was calculated by comparing the means of each group to the vehicle group. The positive control was hydrocortisone.

Series [3] deals with Epidermal equivalents (normal, human-derived epidermal keratinocytes). The series can be described thus: Protection against UV induced loss of viability (LDH release). In kind it is cell-based. The protocol:
(§1) Cell Culture • Epidermal equivalents (4.0 cm^2) were purchased from SkinEthic (Nice, France). Each equivalent served as a multilayered model of the epidermis consisting of normal, human-derived epidermal keratinocytes. Equivalents were cultured in a defined hydrocortisone and phenol red free medium supplied from SkinEthic. Instruments • Kontron (Switzerland) HPLC system. 425 pump, 430 detector, 460 automatic injector and 450 data analysis system. Column: LiChroCART®250-4, RP-select B (5 μm), Merck catalog no. […]
(§2) Twenty four hours post irradiation, the culture medium was collected from the treated epidermal equivalents and evaluated for IL-1α release levels using a commercially available ELISA kit. Cell viability was determined immediately post irradiation using LDH leakage measurments.
(§3) Epidermal Equivalents were purchased from SkinEthic (Nice, France) and cultured in phenol free, hydrocortisone free media. […] Forty-eight hours post irradiation, the medium beneath each equivalent was collected and analyzed for secreted IL-1α by ELISA (Endogen). LDH level (Boehringer Mannheim) was measured immediately post irradiation and after 48 hours to determine the effect of treatment and UV exposure on cell viability. […]
(In general: LDH leaks from cells whose membrane has failed.)

Series [4] shares this test system. The series can be described thus: Protection against UV induced IL-1α release. In kind it is cell-based. The following applies: at 0.01%, UV irradiation. The procedure: as §1, §2, §3
Series [5] is described as follows: Solubility of lycopene in organic solvents (saturation concentration, HPLC and absorbance at 472 nm).
Protocol: Lycopene Quantification—lycopene was analyzed for degradation and quantified by The HPLC buffer used comprised acetonitrile: methanol: methylene chloride: hexane and a ratio of 850:100:25:25 (all HPLC grade, Hoffman La Roche). Quantification was based on a standard curve obtained for lycopene (LycoRed standard. The amount of lycopene was also determined by absorbance at 472 nm.
All samples were diluted with ethanol before measurement. The saturation concentrations of the lycopene were determined by BPLC and by the use of a spectrophotometer (absorbance at 472 nm, where the area under the peak was measured). The saturation limit was defined as the concentration where a precipitate first appears. The concentration of lycopene at saturation was determined after removal of precipitate by high speed centrifugation from the absorbance at 472 nm (the λmax for the ‘red’ form of lycopene) using double beam UVikon 860 (Kontron, Switzerland) spectrometer.
Both types of lycopene were in a powder form before dissolving in cyclohexane. […] These measures were taken after a year and a half of storage at −20° C.
A short description of series [6]: Entrapment of lycopene in MLV liposomes. In kind it is physicochemical. The following applies: liposomes composed of lipid/lycopene 10:1. The procedure: Method of Preparation—The phospholipids were dissolved in cyclohexane at a w/v ratio of 1 mg phospholipid per 10 ml cyclohexane. The dissolving required heating for several seconds at 60° C. and/or sonication for up to 3 minutes. Lycopene was added as powder to the solution, which was then vortexed. The resulting solution was lyophilized overnight and kept at −20° C. until use. To form multilamellar liposome (MLV), 2 ml of 0.9% NaCl were added to the lyophilizate followed by vortex to yield MLV encapsulated lycopene.
Method of Preparation—Lycopene was dissolved in cyclohexane at a w/v ratio of 1 mg of lycopene per 2 ml of cyclohexane. The dissolving required heating for several seconds at 60° C. and sonication for up to 3 minutes until all the lycopene was dissolved. The phospholipids were added as powder to the solution and the mixture was mixed with vortex. The solution was lyophilized overnight in bottles and closed in vacuum. The lyophilized bottles were kept at −20° C. until use.
To form MLV encapsulated lycopene, 2 ml of 0.9% NaCl were added followed by vortex. The percentage of entrapment of lycopene in the formulation was 85.31%.
In general, the population of the liposomes was heterogeneous. […] The 75% lycopene entrapment in liposomes composed of lipid/lycopene 10:1 was measured, wherein 17.5% of the lycopene was entrapped in the MLV. […]

Broadly, the % inhibition is the share of the control response that was lost under treatment. A high value points to a strong effect. One may read the solubility as how much of the substance goes into solution per volume.

Converted amounts (≈) assume the structure as drawn.

Take `CC(C)=CCC/C(C)=C/C=C/C(C)=C/C=C/C(C)=C/C=C/C=C(C)/C=C/C=C(C)/C=C/C=C(\C)CCC=C(C)C` [Power 92% Powder, lycopene]: in series [1], the “Kp Lip/Oil” value is recorded as 0.4141; the Liposome/oil worked out at 0.0414; the Insoluble lycopene was 6.7084 mμ; the “lycopene concentration, Liposomal phase” value amounted to 0.0020 mμ. In series [1], the “lycopene concentration, Oil phase” value was found to be 0.0495 mμ.
Regarding `C[C@]12CCC(=O)C=C1CC[C@@H]1[C@@H]2[C@@H](O)C[C@@]2(C)[C@H]1CC[C@]2(O)C(=O)CO` [Hydrocortisone, hydrocortisone], in series [2], the “% inhibition” value amounted to 92.6%.
With `O=C1O[C@H]([C@@H](O)CO)C(O)=C1O` [Ascorbic acid, ascorbic acid], the “LDH Release, protection, First assay” value in series [3] (at 0.01%, UV irradiation) stood at 100% protection with 0.01%. The “IL-1α release, protection, First assay” value in series [4] was found to be 100% protection with 0.01%.
As to `CC(C)=CCC/C(C)=C/C=C/C(C)=C/C=C/C(C)=C/C=C/C=C(C)/C=C/C=C(C)/C=C/C=C(\C)CCC=C(C)C` [Crystalline, lycopene, reference compound], in series [1], the “Kp Lip/Oil” value turned out to be 0.00952; the Liposome/oil was 0.00095; the Insoluble lycopene amounted to 6.9740 mμ; the “lycopene concentration, Liposomal phase” value stood at 0.0001 mμ. The “lycopene concentration, Oil phase” value in series [1] is 0.1458 mμ.
In the case of `O=C(O)CCCC[C@@H]1CCSS1` (racemic) [Lipoic Acid, lipoic acid], the “Loss of viability (LDH), LDH release, protection” value in series [3] (at 1%, UV irradiation (Table 7C)) is 100% protection with 1%.
Consider `CC(C)=CCC/C(C)=C/C=C/C(C)=C/C=C/C(C)=C/C=C/C=C(C)/C=C/C=C(C)/C=C/C=C(\C)CCC=C(C)C` [lycopene 95%, lycopene], for which the solubility in series [5] (cyclohexane, organic solvent or mixture, thermodynamic from solid, maximal solubility in cyclohexane, after a year and a half of storage at −20° C.) was determined as 2650 µM (≈ 1420 µg/mL).
Regarding `CC(C)=CCC/C(C)=C/C=C/C(C)=C/C=C/C(C)=C/C=C/C=C(C)/C=C/C=C(C)/C=C/C=C(\C)CCC=C(C)C` [lycopene], the “solubility in an aqueous phase” value in series [1] (conclusion from tri-phase system) is listed as “very low, if any”.
On to `CC(C)=CCC/C(C)=C/C=C/C(C)=C/C=C/C(C)=C/C=C/C=C(C)/C=C/C=C(C)/C=C/C=C(\C)CCC=C(C)C` [lycopene 75%, lycopene], for which the “Kp Lip/Oil” value in series [1] (listed as Powder 75%) was 0.4972. Also, the Liposome/oil in series [1] (listed as Powder 75%) came out at 0.0497. The molecule also displayed an Insoluble lycopene in series [1] (listed as Powder 75%) of 5.7899 mμ. The “lycopene concentration, Liposomal phase” value in series [1] (listed as Powder 75%) was found to be 0.0062 mμ. Further, the “lycopene concentration, Oil phase” value in series [1] (listed as Powder 75%) is 0.1239 mμ. Further, in series [5] (after a year and a half of storage at −20° C.), the “maximal solubility in cyclohexane” value was 1960 µM. Moreover, the “Concentration (mM)/HPLC” value is 0.22 mM in series [5] (saturation in Cyclohexane); 0.14 mM in series [5] (saturation in Soy oil); 0.059 mM in series [5] (saturation in ethanol); 0.037 mM in series [5] (saturation in i-propanol); 0.18 mM in series [5] (saturation in n-hexane); 0.016 mM in series [5] (saturation in t-butanol). Also, the “lycopene entrapped in the MLV” value in series [6] is reported as 17.5%.
